Laboratory results: patent publication US9212132B2, “(Meth)acrylic acid ester, activation energy ray curing composition, and inkjet recording ink” (Ricoh Company Ltd., priority 2011, dated 2015)

Key:
[1] = Evaluation of photocuring ability (photorheometer); assay type: physicochemical; conditions: 365 nm; for Photocuring (photorheometer) Elastic modulus: ink: 950 mg monomer + 50 mg IRGACURE 907, 50 mW/cm^2, 10 μm gap, saturated elastic modulus; for Photocuring (photorheometer) Curing energy: light energy applied until elastic modulus saturated; for Photocuring (photorheometer) Curing energy / Photocuring result in words (curing state, elastic modulus): 50 mW/cm^2
Method: An evaluation for curing ability from photopolymerization was performed on each ink using a measuring device combining a rheometer VAR200AD, manufactured by REOLOGICA Instruments AB, with an LED light source (LIGHTNINGCURE LC-L1) manufactured by Hamamatsu Photonics K.K. (referred to as Photorheometer, hereinafter).
A measurement was performed in the following manner. A sample was placed in a gap of 10 μm between a pair of corm plates each having a diameter of 20 mm, and light (365 nm, 50 mW/cm^2) emitted from the LED light source was applied to the sample. A change in viscoelsticity caused by curing was measured, and the time when the elastic modulus (Pa) was saturated was determined as completion of curing. Based on the measurement result, the terminal point of the elastic modulus was determined, which was determined as an index of a curing level. Typically, the level of 1×10^4 (Pa) is a level where the sample is completely cured. Moreover, light energy (curing energy) applied until the elastic modulus was saturated was calculated by the product of light radiation intensity (here, which was 50 mW/cm^2) and a period (sec.) for light radiation.

[2] = Evaluation of photopolymerization reactivity (Photo-DSC); assay type: physicochemical; conditions: ink: 950 mg monomer compound + 50 mg IRGACURE 907; 365 nm, 200 mW/cm^2
Method: Inks for evaluation were each prepared by mixing 950 mg of the monomer compound presented in a respective column of each Example or Comparative Example in Table 1 with 50 mg of 2-methyl-1-[4-(methylthio)phenyl]-2-morpholinopropan-1-one (IRGACURE 907, manufactured by BASF Japan Ltd.) serving as a polymerization initiator, by means of a magnetic stirrer.
An evaluation test for photopolymerization reactivity was performed on each ink using a measuring device combining DSC-7020 manufactured by Seiko Instruments Inc. with a spot light source (LA-410UV) manufactured by HAYASHI WATCH-WORKS CO., LTD. (referred to as Photo-DSC hereinafter). As for the light for radiation, light having wavelength of 365 nm was used, and the light quantity was set to 200 mW/cm^2.
The calorific value of the polymerization reaction carried out after radiation of light was measured by Photo-DSC. A measurement of the calorific value, which was obtained when light was applied for sufficient time to complete a polymerization reaction of the monomer compound, was performed twice on one sample. The calorific value obtained with the first measurement contains the calorific value from radiation of light as well as the calorific value from the polymerization reaction of the monomer compound. Therefore, the sample which completed the polymerization reaction by the first measurement was subjected to radiation of light under the same condition, and the calorific value of the heat other than the heat generated from the polymerization reaction of the monomer compound was measured. The calorific value of the polymerization reaction of the monomer compound was determined with a difference between the calorific value obtained in the first measurement and the calorific value obtained in the second measurement.
As for the exothermic characteristic thereof, the time required to achieve the maximum calorific value from the time for starting radiation of light was determined as T1 (sec.), which was used as an index for comparing the speed of the photopolymerization reaction.

| Photocuring (photorheometer) Elastic modulus [1] | Photocuring (photorheometer) Curing energy [1] | Photopolymerization reactivity (Photo DSC) T1, time required to achieve the maximum calorific value from start of light radiation [2] | Photocuring result in words (curing state, elastic modulus) [1] | Photocuring result in words (curing state, elastic modulus) ([1]; listed as Comparative Example 4) | Photocuring result in words (curing state, elastic modulus) ([1]; listed as Comparative Example 7) | Compound |
| --- | --- | --- | --- | --- | --- | --- |
| 8.0*10^4 Pa | 1,950 mJ/cm^2 | 10.9 s |  |  |  | C=C(C)C(=O)OCCOC(=O)N(CC)CC [B-2] |
| 8.0*10^4 Pa | 2,020 mJ/cm^2 | 19.3 s |  |  |  | C=C(C)C(=O)OCCOc1ccccc1 [Commercial product (b), reference compound] |
| 3.2*10^4 Pa | 210 mJ/cm^2 | 2.5 s |  |  |  | C=CC(=O)OCCOC(=O)NCCCC [Commercial product (c), reference compound] |
| 1.3*10^4 Pa | 365 mJ/cm^2 | 4.5 s |  |  |  | C=CC(=O)OCCN1CCOCC1 [Commercial product (d), reference compound] |
| 8.6*10^4 Pa | 2,050 mJ/cm^2 | 30.3 s |  |  |  | C=C(C)C(=O)OCCN1CCOCC1 [Commercial product (e), reference compound] |
| 7.6*10^4 Pa | 380 mJ/cm^2 | 7.0 s |  |  |  | C=C(C)C(=O)OCCOC(=O)N1CCOCC1 [D-2] |
| 9.0*10^4 Pa | 840 mJ/cm^2 | 12.0 s |  |  |  | C=C(C)C(=O)OCCOC(=O)N1CCCCC1 [E-2] |
| 8.4*10^4 Pa | 150 mJ/cm^2 | 3.2 s |  |  |  | C=CC(=O)OC1CCN(C(=O)OCC)CC1 [F-1] |
| 9.4*10^4 Pa | 430 mJ/cm^2 | 7.0 s |  |  |  | C=C(C)C(=O)OC1CCN(C(=O)OCC)CC1 [F-2] |
| 1.0*10^5 Pa | 210 mJ/cm^2 | 4.8 s |  |  |  | C=C(C)C(=O)OCC(COC(=O)N(CC)CC)OC(=O)C(=C)C (centres unmarked) [G-4] |
| 1.0*10^5 Pa | 110 mJ/cm^2 | 3.0 s |  |  |  | C=C(C)C(=O)OCC(CC)(COC(=O)C(=C)C)COC(=O)N(CC)CC [J-4] |
| 1.1*10^3 Pa |  | 2.5 s | (not cured) | extremely low elastic modulus |  | C=CC(=O)OCCSCC [Ref. Syn. Ex. 1, 2-acryloxy ethylethyl sulfide, reference compound] |
| <1.0 Pa |  | 10.3 s | (not cured) |  | extremely low elastic modulus | C=C(C)C(=O)OCCSCC [Ref. Syn. Ex. 2, 2-methacryloxyethylethyl sulfide, reference compound] |

| Compound | Photocuring (photorheometer) Elastic modulus [1] | Photocuring (photorheometer) Curing energy [1] | Photopolymerization reactivity (Photo DSC) T1, time required to achieve the maximum calorific value from start of light radiation [2] | Photocuring result in words (curing state, elastic modulus) [1] | Photocuring result in words (curing state, elastic modulus) ([1]; listed as Comparative Example 4) | Photocuring result in words (curing state, elastic modulus) ([1]; listed as Comparative Example 7) |
| --- | --- | --- | --- | --- | --- | --- |
| C=CC(=O)OCCOC(=O)N(CC)CC [B-1] | 9.4*10^3 Pa | 520 mJ/cm^2 | 3.2 s |  |  |  |
| C=CC(=O)OCCOc1ccccc1 [Commercial product (a), reference compound] | 4.8*10^4 Pa | 200 mJ/cm^2 | 2.5 s |  |  |  |
| C=CC(=O)OCCOC(=O)N1CCOCC1 [D-1] | 7.9*10^4 Pa | 175 mJ/cm^2 | 3.2 s |  |  |  |
| C=CC(=O)OCCOC(=O)N1CCCCC1 [E-1] | 5.0*10^4 Pa | 380 mJ/cm^2 | 4.5 s |  |  |  |
| C=CC(=O)OCC(COC(=O)N(CC)CC)OC(=O)C=C (centres unmarked) [G-3] | 1.0*10^5 Pa | 140 mJ/cm^2 | 2.4 s |  |  |  |
| C=CC(=O)OCC(CC)(COC(=O)C=C)COC(=O)N(CC)CC [J-3] | 1.0*10^5 Pa | 100 mJ/cm^2 | 2.4 s |  |  |  |
